In ChEMBL document CHEMBL1201862, “PubChem BioAssay data set” (2004):
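Tested at 5 concentrations; 48 h exposure; 96-well plates; endpoints linearly interpolated, else capped at highest concentration. Abbreviation: GI50, concentration required for 50% inhibition of growth.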 The source made the active and inactive calls. Rule as the data show it: active = GI50 up to about 1.1 µM and inactive = higher.

Tests used:
Assay in all cases: growth of human tumour cells (NCI), 48 h
786-0 = tested on: 786-0
A498 = tested on: A498
A549 = tested on: A549
ACHN = tested on: ACHN
CAKI-1 = tested on: CAKI-1
CCRF-CEM = tested on: CCRF-CEM
COLO 205 = tested on: COLO 205
DLD-1 = tested on: DLD-1
DMS-114 = tested on: DMS-114
DMS-273 = tested on: DMS-273
HCT-116 = tested on: HCT-116
HCT-15 = tested on: HCT-15
HL-60 = tested on: HL-60
HOP-18 = tested on: HOP-18
HOP-62 = tested on: HOP-62
HOP-92 = tested on: HOP-92
HT-29 = tested on: HT-29
IGROV-1 = tested on: IGROV-1
K562 = tested on: K562
KM12 = tested on: KM12
LOX IMVI = tested on: LOX IMVI
LXFL 529 = tested on: LXFL 529
M14 = tested on: M14
M19-MEL = tested on: M19-MEL
MOLT-4 = tested on: MOLT-4
Malme-3M = tested on: Malme-3M
NCI-H226 = tested on: NCI-H226
NCI-H23 = tested on: NCI-H23
NCI-H460 = tested on: NCI-H460
NCI-H522 = tested on: NCI-H522
OVCAR-4 = tested on: OVCAR-4
OVCAR-5 = tested on: OVCAR-5
OVCAR-8 = tested on: OVCAR-8
RPMI-8226 = tested on: RPMI-8226
RXF 393 = tested on: RXF 393
SF-268 = tested on: SF-268
SF-295 = tested on: SF-295
SF-539 = tested on: SF-539
SK-MEL-28 = tested on: SK-MEL-28
SK-MEL-2 = tested on: SK-MEL-2
SK-MEL-5 = tested on: SK-MEL-5
SK-OV-3 = tested on: SK-OV-3
SN12C = tested on: SN12C
SNB-75 = tested on: SNB-75
SR = tested on: SR
SW-620 = tested on: SW-620
TK-10 = tested on: TK-10
U-251 = tested on: U-251
UACC-257 = tested on: UACC-257
UACC-62 = tested on: UACC-62
UO-31 = tested on: UO-31
EKVX = tested on: EKVX
HCC 2998 = tested on: HCC 2998
KM-20L2 = tested on: KM-20L2
OVCAR-3 = tested on: OVCAR-3
SNB-19 = tested on: SNB-19
SNB-78 = tested on: SNB-78

COc1ccc(C2S/C(=C\c3ccccc3O)C(=O)N2NC(=O)Cc2ccccc2)cc1 (configuration not stated)
GI50 (786-0): > 100 µM (inactive) | GI50 (A498): > 100 µM (inactive) | GI50 (A549): 98.6 µM (inactive) | GI50 (ACHN): > 100 µM (inactive) | GI50 (CAKI-1): > 100 µM (inactive) | GI50 (CCRF-CEM): 48.5 µM (inactive) | GI50 (COLO 205): > 100 µM (inactive) | GI50 (DLD-1): > 100 µM (inactive) | GI50 (DMS-114): 74.5 µM (inactive) | GI50 (DMS-273): > 100 µM (inactive) | GI50 (HCT-116): 38.2 µM (inactive) | GI50 (HCT-15): > 100 µM | GI50 (HL-60): 60.5 µM (inactive) | GI50 (HOP-18): > 100 µM (inactive) | GI50 (HOP-62): > 100 µM (inactive) | GI50 (HOP-92): > 100 µM (inactive) | GI50 (HT-29): > 100 µM (inactive) | GI50 (IGROV-1): > 100 µM (inactive) | GI50 (K562): 68.5 µM (inactive) | GI50 (KM12): > 100 µM (inactive) | GI50 (LOX IMVI): > 100 µM (inactive) | GI50 (LXFL 529): 93.1 µM (inactive) | GI50 (M14): > 100 µM (inactive) | GI50 (M19-MEL): > 100 µM (inactive) | GI50 (MOLT-4): 39.5 µM (inactive) | GI50 (Malme-3M): > 100 µM (inactive) | GI50 (NCI-H226): > 100 µM (inactive) | GI50 (NCI-H23): > 100 µM (inactive) | GI50 (NCI-H460): > 100 µM (inactive) | GI50 (NCI-H522): > 100 µM (inactive) | GI50 (OVCAR-4): > 100 µM (inactive) | GI50 (OVCAR-5): > 100 µM (inactive) | GI50 (OVCAR-8): 83.2 µM (inactive) | GI50 (RPMI-8226): 48.5 µM (inactive) | GI50 (RXF 393): 61.7 µM (inactive) | GI50 (SF-268): > 100 µM (inactive) | GI50 (SF-295): > 100 µM (inactive) | GI50 (SF-539): > 100 µM (inactive) | GI50 (SK-MEL-28): 40.3 µM (inactive) | GI50 (SK-MEL-2): > 100 µM (inactive) | GI50 (SK-MEL-5): > 100 µM (inactive) | GI50 (SK-OV-3): > 100 µM (inactive) | GI50 (SN12C): > 100 µM (inactive) | GI50 (SNB-75): 57.3 µM (inactive) | GI50 (SR): 37.4 µM (inactive) | GI50 (SW-620): > 100 µM (inactive) | GI50 (TK-10): > 100 µM (inactive) | GI50 (U-251): > 100 µM (inactive) | GI50 (UACC-257): > 100 µM (inactive) | GI50 (UACC-62): 78.7 µM (inactive) | GI50 (UO-31): > 100 µM (inactive)

C#CCN1C(=O)CN2C(Cl)(Cl)C2(c2ccccc2)c2cc(Cl)ccc21 (configuration not stated)
GI50 (ACHN): 85.9 µM (inactive) | GI50 (CAKI-1): 30.1 µM (inactive) | GI50 (CCRF-CEM): 44.3 µM (inactive) | GI50 (COLO 205): 54.5 µM (inactive) | GI50 (DLD-1): 45.3 µM (inactive) | GI50 (DMS-114): 51.5 µM (inactive) | GI50 (DMS-273): 41.7 µM (inactive) | GI50 (EKVX): 50.4 µM (inactive) | GI50 (HCC 2998): 31.2 µM (inactive) | GI50 (HCT-116): 42.2 µM (inactive) | GI50 (HCT-15): 40.6 µM | GI50 (HOP-18): > 100 µM (inactive) | GI50 (HOP-62): 50 µM (inactive) | GI50 (HOP-92): 61.8 µM (inactive) | GI50 (HT-29): 40.9 µM (inactive) | GI50 (K562): 49.8 µM (inactive) | GI50 (KM-20L2): 33.3 µM (inactive) | GI50 (KM12): 28.6 µM (inactive) | GI50 (LOX IMVI): 88.1 µM (inactive) | GI50 (LXFL 529): > 100 µM (inactive) | GI50 (M14): 49.1 µM (inactive) | GI50 (M19-MEL): 84.3 µM (inactive) | GI50 (MOLT-4): 25.1 µM (inactive) | GI50 (Malme-3M): > 100 µM (inactive) | GI50 (NCI-H226): 39.7 µM (inactive) | GI50 (NCI-H23): 86.7 µM (inactive) | GI50 (NCI-H460): 54.8 µM (inactive) | GI50 (NCI-H522): 35.3 µM (inactive) | GI50 (OVCAR-3): 87.5 µM (inactive) | GI50 (OVCAR-4): 72.1 µM (inactive) | GI50 (OVCAR-5): > 100 µM (inactive) | GI50 (OVCAR-8): > 100 µM (inactive) | GI50 (RPMI-8226): 70.5 µM (inactive) | GI50 (RXF 393): > 100 µM (inactive) | GI50 (SF-268): 82 µM (inactive) | GI50 (SF-295): 65.8 µM (inactive) | GI50 (SK-MEL-28): > 100 µM (inactive) | GI50 (SK-MEL-2): 94.4 µM (inactive) | GI50 (SK-MEL-5): 51.3 µM (inactive) | GI50 (SN12C): 37.2 µM (inactive) | GI50 (SNB-75): > 10 µM (inactive) | GI50 (SR): 40.3 µM (inactive) | GI50 (SW-620): 70.3 µM (inactive) | GI50 (TK-10): 89.9 µM (inactive) | GI50 (U-251): > 10 µM (inactive) | GI50 (UACC-257): 36.3 µM (inactive) | GI50 (UO-31): 68.1 µM (inactive)

CCC1=C(C(C)=O)[C@@H]2CCCCC(C(=O)OC)[C@@H]2C1=O (some centres not stated)
GI50 (786-0): > 100 µM (inactive) | GI50 (A498): > 100 µM (inactive) | GI50 (A549): > 100 µM (inactive) | GI50 (ACHN): > 100 µM (inactive) | GI50 (CAKI-1): > 100 µM (inactive) | GI50 (CCRF-CEM): > 100 µM (inactive) | GI50 (COLO 205): > 100 µM (inactive) | GI50 (DLD-1): > 100 µM (inactive) | GI50 (DMS-114): > 100 µM (inactive) | GI50 (DMS-273): > 100 µM (inactive) | GI50 (EKVX): > 100 µM (inactive) | GI50 (HCC 2998): > 100 µM (inactive) | GI50 (HCT-116): > 100 µM (inactive) | GI50 (HCT-15): > 100 µM | GI50 (HL-60): > 100 µM (inactive) | GI50 (HOP-18): 47 µM (inactive) | GI50 (HOP-62): > 100 µM (inactive) | GI50 (HOP-92): > 100 µM (inactive) | GI50 (HT-29): > 100 µM (inactive) | GI50 (IGROV-1): > 100 µM (inactive) | GI50 (K562): > 100 µM (inactive) | GI50 (KM-20L2): > 100 µM (inactive) | GI50 (KM12): > 100 µM (inactive) | GI50 (LXFL 529): > 100 µM (inactive) | GI50 (M14): > 100 µM (inactive) | GI50 (M19-MEL): 79.4 µM (inactive) | GI50 (MOLT-4): > 100 µM (inactive) | GI50 (Malme-3M): > 100 µM (inactive) | GI50 (NCI-H226): > 100 µM (inactive) | GI50 (NCI-H23): > 100 µM (inactive) | GI50 (NCI-H460): > 100 µM (inactive) | GI50 (NCI-H522): 88.1 µM (inactive) | GI50 (OVCAR-4): > 100 µM (inactive) | GI50 (OVCAR-5): > 100 µM (inactive) | GI50 (OVCAR-8): > 100 µM (inactive) | GI50 (RPMI-8226): > 100 µM (inactive) | GI50 (RXF 393): > 100 µM (inactive) | GI50 (SF-268): > 100 µM (inactive) | GI50 (SF-295): > 100 µM (inactive) | GI50 (SF-539): > 100 µM (inactive) | GI50 (SK-MEL-28): > 100 µM (inactive) | GI50 (SK-MEL-2): > 100 µM (inactive) | GI50 (SK-MEL-5): > 100 µM (inactive) | GI50 (SK-OV-3): > 100 µM (inactive) | GI50 (SN12C): > 100 µM (inactive) | GI50 (SNB-19): > 100 µM (inactive) | GI50 (SNB-75): > 100 µM (inactive) | GI50 (SNB-78): > 100 µM (inactive) | GI50 (SW-620): > 100 µM (inactive) | GI50 (TK-10): > 100 µM (inactive) | GI50 (U-251): > 100 µM (inactive) | GI50 (UACC-257): > 100 µM (inactive) | GI50 (UACC-62): > 100 µM (inactive) | GI50 (UO-31): > 100 µM (inactive)
